Drawing on US7501410B2, “Methods of inhibiting BTK and SYK protein kinases” (Roche Palo Alto LLC, priority 2006, dated 2009), this text covers IC50 for three compounds.

Assay [1] deals with T1, Bruton's Tyrosine Kinase (Btk) (Homo sapiens, UniProt Q06187).
T1 construct: 5-10 nM Btk enzyme (His-tagged, full-length); His tag
Put plainly: Determination of IC50 of Bruton's Tyrosine Kinase (Btk) inhibition, 33P filtration assay. Particulars: His-tagged full-length Btk, 100 μM ATP. Type of assay: biochemical. In short, it runs like this: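 Full-length His-tagged Btk (5-10 nM) preincubated 10 min at RT with compounds, then 30 min at 30° C with 30 μM biotinylated SH2 peptide, 100 μM ATP plus ^33P ATP, Mn/Mg in imidazole buffer pH 7.2. Product captured on streptavidin beads, counted by scintillation; 10-point half-log IC50 from 100 μM, background without substrate.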

The test system of assay [2] is Ramos cells. Put plainly: Inhibition of B-cell activation, B cell FLIPR assay in Ramos cells. Format: cell-based. Particulars: Homo sapiens, anti-IgM stimulated intracellular calcium increase. The source says:
Inhibition of B-cell Activation—B Cell FLIPR Assay in Ramos Cells
The B cell FLIPR assay is a cell based functional method of determining the effect of potential inhibitors of the intracellular calcium increase from stimulation by an anti-IgM antibody. Ramos cells (human Burkitt's lymphoma cell line. ATCC-No. CRL-1596) were cultivated in Growth Media (described below). One day prior to assay, Ramos cells were resuspended in fresh growth media (same as above) and set at a concentration of 0.5×10^6/mL in tissue culture flasks. On day of assay, cells were counted and set at a concentration of 1×10^6/mL in growth media supplemented with 1 μM FLUO-3 AM(TefLabs Cat-No. 0116, prepared in anhydrous DMSO and 10% Pluronic acid) in a tissue culture flask, and incubated at 37° C. (4% CO2) for 1 h. To remove extracellular dye, cells were collected by centrifugation (5 min, 1000 rpm), resuspended in FLIPR buffer (described below) at 1×10^6 cells/mL and then dispensed into 96-well poly-D-lysine coated black/clear plates (BD Cat-No. 356692) at 1×10^5 cells per well. Test compounds at seven concentrations ranging from 100 μM to 0.03 μM were added, and allowed to incubate with cells for 30 min at RT. Ramos cell Ca^2+ signaling was stimulated by the addition of 10 μg/mL anti-IgM (Southern Biotech, Cat-No. 2020-01) and measured on a FLIPR (Molecular Devices, captures images of 96 well plates using a CCD camera with an argon laser at 480 nm excitation).
Growth Medium: RPMI 1640 medium with L-glutamine (Invitrogen, Cat-No. 61870-010), 10% Fetal Bovine Serum (FBS, Summit Biotechnology Cat-No. FP-100-05); 1 mM Sodium Pyruvate (Invitrogen Cat. No. 11360-070).
FLIPR buffer: HBSS (Invitrogen, Cat-No. 141175-079),2 mM CaCl2 (Sigma Cat-No. C-4901), HEPES (Invitrogen, Cat-No. 15630-080), 2.5 mM Probenecid (Sigma, Cat-No. P-8761), 0.1% BSA (Sigma, Cat-No. A-7906), 11 mM Glucose (Sigma, Cat-No. G-7528).
In order to achieve the highest final assay concentration of 100 μM, 24 μL of 10 mM compound stock solution (made in DMSO) is added directly to 576 μL of FLIPR buffer. The test compounds are diluted in FLIPR Buffer (using Biomek 2000 robotic pipettor) resulting in the following dilution scheme: vehicle, 1.00×10^−4 M, 1.00×10^−5, 3.16×10^−6, 1.00×10^−6, 3.16×10^−7, 1.00×10^−7, 3.16×10^−8.
Intracellular increases in calcium were reported using a max-min statistic (subtracting the resting baseline from the peak caused by addition of the stimulatory antibody using a Molecular Devices FLIPR control and statistic exporting software. The IC50 was determined using a non-linear curve fit (GraphPad Prism software). Representative results are in Table 1.
For orientation: Calcium flux is commonly read through the fluorescence of an indicator in the cells.

T1 sequence (Q06187 whole entry): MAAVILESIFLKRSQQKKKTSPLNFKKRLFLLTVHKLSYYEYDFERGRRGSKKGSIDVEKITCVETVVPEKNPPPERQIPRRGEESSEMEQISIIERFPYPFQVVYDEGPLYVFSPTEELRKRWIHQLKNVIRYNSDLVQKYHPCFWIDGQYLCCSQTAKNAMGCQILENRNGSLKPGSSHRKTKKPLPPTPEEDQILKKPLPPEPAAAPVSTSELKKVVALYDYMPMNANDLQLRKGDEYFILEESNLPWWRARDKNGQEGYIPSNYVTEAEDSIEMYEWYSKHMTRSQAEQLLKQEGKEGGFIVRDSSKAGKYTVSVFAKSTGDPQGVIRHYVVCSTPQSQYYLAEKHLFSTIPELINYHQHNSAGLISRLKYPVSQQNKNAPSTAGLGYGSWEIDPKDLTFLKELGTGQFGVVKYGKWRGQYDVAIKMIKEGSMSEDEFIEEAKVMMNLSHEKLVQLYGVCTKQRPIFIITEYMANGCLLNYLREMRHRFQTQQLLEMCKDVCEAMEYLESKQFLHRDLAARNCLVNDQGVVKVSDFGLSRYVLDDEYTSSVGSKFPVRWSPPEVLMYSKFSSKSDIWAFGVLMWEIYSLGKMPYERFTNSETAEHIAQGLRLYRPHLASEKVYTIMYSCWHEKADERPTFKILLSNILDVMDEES

For `Cc1cc(Nc2nn(C(C)C)c(=O)c3cc(N4CCOCC4)ccc23)n[nH]1` [Example F-1, 2-Isopropyl-4-(5-methyl-1H-pyrazol-3-ylamino)-7-morpholino-2H-phthalazin-1-one], the IC50 in assay [1] was determined as 0.275 µM; in assay [2], 1.2 µM.
`Cc1cc(Nc2nn(C(C)C)c(=O)c3cc(N4CCN(C)CC4)ccc23)[nH]n1` [Example F-5, 2-Isopropyl-7-(4-methyl-piperazin-1-yl)-4-(5-methyl-2H-pyrazol-3-ylamino)-2H-phthalazin-1-one]: the IC50 worked out at 0.102 µM in assay [1] and 0.41 µM in assay [2].
For `Cc1cc(Nc2nn(C(C)C)c(=O)c3cc(OCCN(C)C)ccc23)n[nH]1` [Example ZD-5, 7-(2-Dimethylamino-ethoxy)-2-isopropyl-4-(5-methyl-1H-pyrazol-3-ylamino)-2H-phthalazin-1-one] the same measures were 0.186 µM and 0.575 µM.

For orientation: IC50 means the concentration needed to halve the response being measured.
